# Test results: patent publication US11224224B2, “Thiobenzoimidazole as fungicides” (REDAG CROP PROTECTION LTD, priority 2017, dated 2022)
# How the values were obtained:
# Assay type in all cases: cell-based
# [1] = tested on: Pythium ultimum; assay: Amended agar assay (PDA), colony growth; settings: Globisporangium ultimum; 20 ppm in amended PDA, 18° C., reduction in colony growth vs control plate
# Procedure: (§1) Testing was carried out on potato dextrose agar (PDA) amended with each compound at a test concentration of 20 ppm. Amended agar was poured into three replicate 9 cm petri dishes. Each replicate dish was inoculated in the centre with a 5 mm agar plug taken from the leading edge of a culture aged between 2 and 7 days old; the age of the culture was dependant on the growth rate of the pathogen being tested. The test pathogens were Pythium ultimum and Phytophthora cinnamomi. Plates were incubated at 18° C. and the diameter of each colony measured before growth on the fastest growing plate reached the plate edge. This varied between 2 and 7 days depending on the growth rate of test pathogens. The % reduction in colony growth compared to the control plate was calculated for each pathogen. The results are provided in Table 1, in which D represents no control detected at this concentration; C represents up to 50% control; B from 50 to 99% control; and A represents a control of greater than 99%, i.e. no detectable colony growth.
# (§2) Alternatively, or in addition, the same assay was conducted at descending test concentrations with 5-fold dilutions typically down to 0.032 ppm though sometimes as low as 0.00026 ppm, and an EC50 (the concentration at which 50% control would be achieved) was determined. The results are provided in Table 1 in which G represents an EC50 above 20 ppm, F represents an EC50 of 1-20 ppm and E represents and EC50 less than 1 ppm.
# [2] = tested on: Phytophthora cinnamomi; assay: Amended agar assay (PDA), colony growth; settings: Phytophthora cinnamomi; 20 ppm in amended PDA, 18° C., reduction in colony growth vs control plate; read-out: % control Phytophthora spp. 20 ppm
# Procedure: as §1, §2
# [3] = tested on: Phytophthora cactorum; assay: 96 well plate test (amended agar with spores); settings: 96 well plate, 20, 2, 0.2 and 0.02 ppm, 1% PDA, 2 to 3 days (cells marked *), read-out: EC50 Phytophthora spp. (*96 well plate format vs. Phytophthora cactorum)
# Procedure: Compounds were screened in 96 well plates with 10 compounds per plate. Each compound was screened using agar amended to 20, 2, 0.2 and 0.02 ppm, with Proline at 50 and 10 ppm and 0.2% DMSO used as controls. Each test concentration and standard was replicated twice on a plate. Compounds were screened against Phytophthora cactorum. The agar used in the test is a 1% PDA. 1000 spores/mL agar were added to the appropriate agar.
# A ×10 stock solution in 2% DMSO was produced for each dose i.e. 200, 20, 2 and 0.2 ppm, and 10 μl of this added to the appropriate wells on the plate. An equivalent amount of 2% DMSO and Proline stock at 500 and 100 ppm were added for the controls. To each well 90 μl of the appropriate agar spore suspension was added to give the required final well concentrations. Plates were incubated at room temperature (18° C.) and assessed after 2 to 3 days. The amount of pathogen growth in each well was compared to the DMSO controls and an EC50 concentration was calculated. The results are provided in Table 1 in which G represents an EC50 above 20 ppm, F represents an EC50 of 1-20 ppm and E represents an EC50 less than 1 ppm.
# [4] = tested on: oomycete plant pathogens; assay: Fungicidal activity testing, overall summary; settings: summary statement on Table 1
# Procedure: The activity of compounds of the invention was assessed by testing against certain oomycete plant pathogens and representative data are presented in Table 1.
# [5] = tested on: Pythium ultimum; assay: Amended agar assay (PDA), colony growth; settings: Globisporangium ultimum; read-out: % control Pythium ultimum 2 ppm
smiles,measurement,setting,value
"Clc1cncnc1-n1c(SCc2ccccn2)nc2ccccc21 [Example 59, 1-(5-Chloropyrimidin-4-yl)-2-((pyridin-2-ylmethyl)thio)-1H-benzo[d]imidazole]",inhibition of growth at 20 ppm,[1],> 99%
same,inhibition of growth at 20 ppm,[2],> 99%
same,EC50,[3],1 to 20 µg/mL
same,control over the pathogens tested,[4],good to excellent control
same,inhibition of growth at 2 ppm,[5],> 99%
